Results from the supplement of paper PMC10307832.

Experiments:
Experiment in all cases: relative viability (nuclei count vs DMSO), 5 days (fraction); higher = more cells survive
Vismodegib + Alpelisib = compound: CS(=O)(=O)c1ccc(C(=O)Nc2ccc(Cl)c(-c3ccccn3)c2)c(Cl)c1 [Vismodegib] + Cc1nc(NC(=O)N2CCC[C@H]2C(N)=O)sc1-c1ccnc(C(C)(C)C(F)(F)F)c1 [Alpelisib] (partner 2 µM)
In short: (§1)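 Lung cancer cell lines in 1536-well plates got either a single drug or a fixed anchor-drug dose together with five library-drug doses (not always all listed) in √10 steps, by pin tool, on the day after seeding. Nuclei were counted after 5 days, and relative viability is the treated-to-vehicle ratio of nuclei counts. Values are medians of duplicate plates.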

VE-821 + Linsitinib = compound: CS(=O)(=O)c1ccc(-c2cnc(N)c(C(=O)Nc3ccccc3)n2)cc1 [VE-821] + C[C@]1(O)C[C@@H](c2nc(-c3ccc4ccc(-c5ccccc5)nc4c3)c3c(N)nccn32)C1 [Linsitinib] (partner 1 µM)
In short: as §1

VE-821 + Olaparib = compound: CS(=O)(=O)c1ccc(-c2cnc(N)c(C(=O)Nc3ccccc3)n2)cc1 [VE-821] + O=C(c1cc(Cc2n[nH]c(=O)c3ccccc23)ccc1F)N1CCN(C(=O)C2CC2)CC1 [Olaparib] (partner 8 µM)
In short: as §1

Vismodegib + Dasatinib = compound: CS(=O)(=O)c1ccc(C(=O)Nc2ccc(Cl)c(-c3ccccn3)c2)c(Cl)c1 [Vismodegib] + Cc1nc(Nc2ncc(C(=O)Nc3c(C)cccc3Cl)s2)cc(N2CCN(CCO)CC2)n1 [Dasatinib] (partner 0.075 µM)
In short: as §1

Row | Cell Line | relative viability (Vismodegib + Alpelisib; first compound 0.08 µM) | relative viability (Vismodegib + Alpelisib; first compound 0.253 µM) | relative viability (Vismodegib + Alpelisib; first compound 0.8 µM) | relative viability (Vismodegib + Alpelisib; first compound 2.53 µM) | relative viability (Vismodegib + Alpelisib; first compound 8 µM) | relative viability (VE-821 + Linsitinib; first compound 0.08 µM) | relative viability (VE-821 + Linsitinib; first compound 0.8 µM) | relative viability (VE-821 + Linsitinib; first compound 2.53 µM) | relative viability (VE-821 + Linsitinib; first compound 8 µM) | relative viability (VE-821 + Olaparib; first compound 0.08 µM) | relative viability (VE-821 + Olaparib; first compound 0.253 µM) | relative viability (VE-821 + Olaparib; first compound 0.8 µM) | relative viability (VE-821 + Olaparib; first compound 2.53 µM) | relative viability (VE-821 + Olaparib; first compound 8 µM) | relative viability (Vismodegib + Dasatinib; first compound 0.08 µM) | relative viability (Vismodegib + Dasatinib; first compound 0.253 µM) | relative viability (Vismodegib + Dasatinib; first compound 0.8 µM) | relative viability (Vismodegib + Dasatinib; first compound 2.53 µM) | relative viability (Vismodegib + Dasatinib; first compound 8 µM) | relative viability (VE-821 + Linsitinib; first compound 0.253 µM)
1 | NCI-H322M | 0.813 | 0.756 | 0.744 | 0.917 | 0.773 | 0.933 | 1 | 0.93 | 0.771 | 0.783 | 0.842 | 0.712 | 0.653 | 0.458 | 0.244 | 0.25 | 0.243 | 0.245 | 0.255 | 
2 | LU99A | 0.617 | 0.544 | 0.474 | 0.499 | 0.556 | 0.496 | 0.545 | 0.53 | 0.278 | 0.245 | 0.228 | 0.176 | 0.143 | 0.122 | 0.401 | 0.507 | 0.546 | 0.509 | 0.708 | 0.535
3 | NCI-H2405 |  | 0.81 | 0.676 | 0.603 | 0.875 | 0.881 | 0.724 | 1.09 | 0.693 | 0.937 | 0.828 | 0.846 | 0.997 | 0.805 | 0.214 | 0.228 | 0.212 | 0.235 | 0.239 | 0.943
4 | LK-2 | 1.24 | 1.04 | 0.805 | 0.952 | 1.22 | 0.583 | 0.662 | 0.705 | 0.501 | 0.991 | 0.826 | 0.879 | 0.916 | 0.69 | 0.316 | 0.355 | 0.325 | 0.255 | 0.376 | 0.595
5 | HCC-366 | 0.436 | 0.467 | 0.362 | 0.402 | 0.556 | 0.907 | 0.329 | 0.477 | 0.0616 | 0.654 | 0.342 | 0.19 | 0.0816 | 0.0499 | 0.816 | 0.587 | 0.622 | 0.693 | 0.692 | 0.49
6 | NCI-H441 | 0.647 | 0.633 | 0.829 | 0.824 | 0.745 | 0.762 | 0.651 | 0.821 | 0.42 | 0.6 | 0.643 | 0.584 | 0.469 | 0.247 | 0.671 | 0.444 | 0.502 | 0.558 | 0.433 | 0.666
7 | COR-L 105 | 0.832 | 0.882 | 0.847 | 0.839 | 0.868 | 0.944 | 0.75 | 0.776 | 0.496 | 0.708 | 0.638 | 0.434 | 0.561 | 0.484 | 0.288 | 0.303 | 0.422 | 0.339 | 0.357 | 0.885
8 | A-427 | 1.02 | 1.04 | 0.965 | 1.09 | 1.1 | 1.18 | 1.06 | 1.08 | 0.894 | 0.797 | 0.71 | 0.618 | 0.556 | 0.389 | 0.647 | 0.65 | 0.609 | 0.642 | 0.804 | 1.12
9 | NCI-H2228 | 0.643 | 0.952 | 0.606 | 0.622 | 0.758 | 0.955 | 0.635 | 0.758 | 0.395 | 0.506 | 0.625 | 0.641 | 0.534 | 0.222 | 0.593 | 0.529 | 0.46 | 0.452 | 0.454 | 0.866
10 | ABC-1 | 0.994 | 1.13 | 1.08 | 0.83 | 0.949 | 0.819 | 0.567 | 0.798 | 0.423 | 0.776 | 0.873 | 0.755 | 0.869 | 0.757 | 0.584 | 0.415 | 0.527 | 0.527 | 0.582 | 0.699
11 | LOU-NH91 | 0.693 | 0.782 | 0.699 | 0.695 | 0.755 | 0.94 | 0.989 | 1.04 | 0.898 | 0.988 | 0.921 | 0.924 | 0.916 | 0.847 | 0.55 | 0.554 | 0.526 | 0.547 | 0.511 | 0.949
12 | NCI-H727 | 0.601 | 0.563 | 0.555 | 0.529 | 0.611 | 0.31 | 0.251 | 0.335 | 0.22 | 0.725 | 0.694 | 0.765 | 0.682 | 0.66 | 0.307 | 0.345 | 0.342 | 0.308 | 0.364 | 0.337
13 | NCI-H2023 | 0.584 | 0.534 | 0.626 | 0.546 | 0.495 | 0.779 | 0.329 | 0.539 | 0.225 | 0.576 | 0.4 | 0.222 | 0.169 | 0.0964 | 0.564 | 0.534 | 0.628 | 0.455 | 0.558 | 0.642
14 | LCLC-103H | 1.05 | 0.973 | 0.908 | 0.978 | 0.947 | 1.23 | 0.999 | 1.34 | 1.1 | 0.769 | 0.76 | 0.71 | 0.76 | 0.663 | 0.579 | 0.517 | 0.471 | 0.4 | 0.458 | 1.1
15 | HARA | 0.833 | 0.863 | 0.817 | 0.8 | 0.788 | 1.03 | 0.931 | 0.972 | 0.702 | 0.695 | 0.798 | 0.583 | 0.387 | 0.391 | 0.263 | 0.249 | 0.254 | 0.339 | 0.279 | 1.02
16 | RERF-LC-KJ | 0.789 | 0.748 | 0.909 | 0.748 | 0.773 | 0.902 | 0.819 | 0.875 | 0.753 | 0.946 | 0.819 | 0.851 | 0.698 | 0.49 | 0.779 | 0.676 | 0.75 | 0.758 | 0.768 | 0.871
